The text below walks through data of patent US20180354962A1, “[{[2,3-Dihydro-1H-inden-1-yl]amino}-2H,3H-furo[3,2-b]pyridin-3-yl]acetic acids, pharmaceutical compositions and uses thereof” (Boehringer Ingelheim International GmbH, priority 2015, published 2018).

In one data set the target is human GPR40 receptor (Homo sapiens, UniProt O14842). Put plainly: IP1 accumulation measurements using the IPOne assay system. It is filed as cell-based. Conditions: 1321N1 cells stably expressing human GPR40; 1 h stimulation at 37° C. The procedure: IP1 accumulation measurements using the IPOne assay system—1321N1 cells stably expressing human GPR40 receptor (Euroscreen, Belgium) are seeded 24 h before the assay in white 384-well plates in culture medium containing 10% FCS, 1% Na-Pyruvate and 400 μg/mL G418. IP1 is assayed according to the manufacturer's description (Cisbio Bioassays, France). In brief, the assay is started by substitution of the culture medium by stimulation buffer (Hepes 10 mM, CaCl2 1 mM, MgCl2 0.5 mM, KCl 4.2 mM, NaCl 146 mM, glucose 5.5 mM and LiCl 50 mM, pH 7.4). Cells are stimulated for 1 h at 37° C., 5% CO2 by addition of the compounds that are diluted in stimulation buffer containing LiCl. Assays are stopped by adding HTRF-conjugates (IP1-d2 and Anti-IP1 cryptate Tb) and lysis buffer, provided by the manufacturer. After an incubation time of 1 h at room temperature plates are measured using an EnVision™, Perkin Elmer. The obtained fluorescence ratios at 665/615 […] are then used to calculate the pEC50 values using Assay Explorer 3.3 Software (Accelrys, Inc.) by interpolation using an IP1 reference curve and subsequent sigmoidal curve fitting allowing for a variable hill slope.

The nature of data set [1]: Aqueous solubility from DMSO stock, LC-UV. It is filed as physicochemical. As to conditions: aqueous buffer, kinetic from dmso stock; buffer pH 2.2, 24 h shaking, 2.5% DMSO. How it is done:
The aqueous solubility of the compounds of the invention is determined by comparing the amount dissolved in buffer to the amount in an acetonitrile/water (1/1) solution. Starting from a 10 mM DMSO stock solution aliquots are diluted with acetonitrile/water (1/1) or buffer, respectively. After 24 h of shaking, the solutions are filtrated and analyzed by LC-UV. The amount dissolved in buffer is compared to the amount in the acetonitrile solution. Solubility is usually being measured from 0.001 to 0.125 mg/mL at a DMSO concentration of 2.5%. If more than 90% of the compound is dissolved in buffer, the value is marked with “>”.

In data set [2] the target is T1, cytochrome P450 2C8-isoenzyme (Homo sapiens, UniProt P10632).
T1 construct: is assayed at 37° C. with human liver microsomes; from tissue; host or cells: human liver microsomes
T1 sequence (P10632 1-490): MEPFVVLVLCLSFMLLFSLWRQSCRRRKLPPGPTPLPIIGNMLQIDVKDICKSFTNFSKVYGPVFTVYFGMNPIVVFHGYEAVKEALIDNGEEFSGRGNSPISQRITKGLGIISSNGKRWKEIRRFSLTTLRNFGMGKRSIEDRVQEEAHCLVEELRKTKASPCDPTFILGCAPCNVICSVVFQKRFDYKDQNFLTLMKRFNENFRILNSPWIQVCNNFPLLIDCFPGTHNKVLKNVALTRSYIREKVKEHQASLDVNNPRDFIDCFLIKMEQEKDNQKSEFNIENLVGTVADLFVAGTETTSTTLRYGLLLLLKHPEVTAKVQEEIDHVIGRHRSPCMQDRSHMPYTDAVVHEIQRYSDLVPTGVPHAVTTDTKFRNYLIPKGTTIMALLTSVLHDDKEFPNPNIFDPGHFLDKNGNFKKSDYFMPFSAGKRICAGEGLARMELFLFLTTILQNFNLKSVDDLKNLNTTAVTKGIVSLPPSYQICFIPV
Put plainly: Inhibition of CYP-2C8 (amodiaquine deethylation, human liver microsomes). It is filed as in vitro ADME. Conditions: human liver microsomes 0.05 mg/mL, amodiaquine 1 μM, 37° C. The procedure:
All assays are carried out on a robotic system in 96 well plates. The final incubation volume contains TRIS buffer (0.1 M), MgCl2 (5 mM), human liver microsomes (0.05 mg/mL), amodiaquine (1 μM) and the test compound at five different concentrations or no compound (high control) in duplicate (e.g. highest concentration 10-50 μM with subsequent serial 1:4 dilutions). Following a short preincubation period, reactions are started with the cofactor (NADPH, 1 mM) and stopped by cooling the incubation down to 8° C. and subsequently by addition of one volume of acetonitrile. An internal standard solution—the stable isotope d5-desethylamodiaquine—is added after quenching of incubations. Peak area analyte (=metabolite formed) and internal standard is determined by LC-MS/MS. The resulting peak area ratio analyte to internal standard in these incubations is compared to a control activity containing no test compound. Within each of the assay runs, the IC50 of a positive control inhibitor (Montelukast) is determined. Experimental IC50 values are calculated by least square regression according to the following equation: % control activity=(100% control activity/(1+(I/IC50)S))−B with I=inhibitor concentration; S=slope factor; B=background activity (lower plateau of the inhibition curve) If the inhibition of the reaction is already >50% at the lowest concentration of the test compound, the IC50 is assigned “<lowest concentration tested” (usually <0.4 μM). If the inhibition of the reaction is still <50% at the highest concentration of the test compound, the IC50 is assigned “>highest concentration tested” (usually >50 μM).
(In general: Liver microsomes are a subcellular fraction often used to study metabolism.)

Data set [3] concerns the target T2, cytochrome P450 2C9-isoenzyme (Homo sapiens, UniProt P11712).
T2 construct: is assayed at 37° C. with human liver microsomes; from tissue; host or cells: human liver microsomes
Nature of the data set: Inhibition of CYP-2C9 (diclofenac hydroxylation, human liver microsomes). Conditions: human liver microsomes 0.1 mg/mL, diclofenac 10 μM, 37° C. In kind it is in vitro ADME. The procedure:
All assays are carried out on a robotic system in 96 well plates. The final incubation volume contains TRIS buffer (0.1 M), MgCl2 (5 mM), human liver microsomes (0.1 mg/mL), diclofenac (10 μM) and the test compound at five different concentrations or no compound (high control) in duplicate (e.g. highest concentration 10-50 μM with subsequent serial 1:4 dilutions). Following a short preincubation period, reactions are started with the cofactor (NADPH, 1 mM) and stopped by cooling the incubation down to 8° C. and subsequently by addition of one volume of acetonitrile. An internal standard solution—the stable isotope 13C6-hydroxydiclofenac—is added after quenching of incubations. Peak area analyte (=metabolite formed) and internal standard is determined by LC-MS/MS. The resulting peak area ratio analyte to internal standard in these incubations is compared to a control activity containing no test compound. Within each of the assay runs, the IC50 of a positive control inhibitor (sulfaphenazole) is determined. Experimental IC50 values are calculated by least square regression according to the following equation: % control activity=(100% control activity/(1+(I/IC50)S)))−B with I=inhibitor concentration S=slope factor B=background activity (lower plateau of the inhibition curve) If the inhibition of the reaction is already >50% at the lowest concentration of the test compound, the IC50 is assigned “<lowest concentration tested” (usually <0.4 μM). If the inhibition of the reaction is still <50% at the highest concentration of the test compound, the IC50 is assigned “>highest concentration tested” (usually >50 μM).

The structures appear in SMILES notation. pEC50, pIC50: −log10 of the molar value. Converted amounts (≈) assume the structure as drawn. Some results are limits rather than exact numbers.

Sequence of human GPR40 receptor (O14842 whole entry): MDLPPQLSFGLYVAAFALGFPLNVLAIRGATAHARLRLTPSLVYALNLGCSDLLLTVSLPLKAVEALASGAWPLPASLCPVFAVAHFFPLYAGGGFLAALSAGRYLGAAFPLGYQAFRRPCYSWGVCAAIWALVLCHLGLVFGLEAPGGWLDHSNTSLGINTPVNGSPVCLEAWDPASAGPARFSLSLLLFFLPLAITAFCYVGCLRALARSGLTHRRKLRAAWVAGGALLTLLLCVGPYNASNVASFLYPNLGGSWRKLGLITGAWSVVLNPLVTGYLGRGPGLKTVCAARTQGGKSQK
T2 sequence (P11712 whole entry): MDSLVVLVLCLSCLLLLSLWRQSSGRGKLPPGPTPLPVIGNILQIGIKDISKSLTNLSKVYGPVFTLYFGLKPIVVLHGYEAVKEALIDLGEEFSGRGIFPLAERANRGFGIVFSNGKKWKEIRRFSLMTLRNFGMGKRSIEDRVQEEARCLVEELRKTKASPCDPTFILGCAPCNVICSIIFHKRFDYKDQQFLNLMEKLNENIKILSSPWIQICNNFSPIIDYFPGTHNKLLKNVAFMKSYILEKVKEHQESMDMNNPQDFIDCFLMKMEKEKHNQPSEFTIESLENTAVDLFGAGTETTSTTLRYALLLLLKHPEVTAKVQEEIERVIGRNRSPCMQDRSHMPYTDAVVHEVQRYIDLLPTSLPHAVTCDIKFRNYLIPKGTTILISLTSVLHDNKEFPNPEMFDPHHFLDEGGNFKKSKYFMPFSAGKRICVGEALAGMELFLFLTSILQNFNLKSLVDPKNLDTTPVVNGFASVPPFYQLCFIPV

With `Cc1cc(OC2CCOCC2)cc(C)c1-c1cccc2c1CC[C@H]2Nc1cnc2c(c1)OCC2CC(=O)O` (stereo partly drawn) [Example 119, 2-(6-{[(1R)-4-[2,6-Dimethyl-4-(oxan-4-yloxy)phenyl]-2,3-dihydro-1H-inden-1-yl]amino}-2H,3H-furo[3,2-b]pyridin-3-yl)acetic acid], the pEC50 (usually −log10 of the EC50, conventionally taken in molar units) at human GPR40 receptor was 7.05. In data set [1], the solubility (as a rule, how much of the substance goes into solution per volume) at 24 h is 16 µg/mL (≈ 31.1 µM). In addition, the values for the pIC50 in data set [2] and in data set [3] were 4.39 and less than 4.30, respectively.
For `O=C(O)CC1COc2cc(N[C@@H]3CCc4c(-c5ccccc5C(F)(F)F)cccc43)cnc21` (stereo partly drawn) [Example 125, 2-(6-{[(1R)-4-[2-(Trifluoromethyl)phenyl]-2,3-dihydro-1H-inden-1-yl]amino}-2H,3H-furo[3,2-b]pyridin-3-yl)acetic acid] the same measures were 6.16, 22 µg/mL (≈ 48.4 µM), 4.68 and 4.33.
The matching figures for `Cc1cc(-c2ccc(=O)n(C)c2)cc(C)c1-c1cccc2c1CC[C@H]2Nc1cnc2c(c1)OCC2CC(=O)O` (stereo partly drawn) [Example 121, 2-(6-{[(1R)-4-[2,6-Dimethyl-4-(1-methyl-6-oxo-1,6-dihydropyridin-3-yl)phenyl]-2,3-dihydro-1H-inden-1-yl]amino}-2H,3H-furo[3,2-b]pyridin-3-yl)acetic acid]: 7.21, 51 µg/mL (≈ 97.8 µM), 4.54 and less than 4.30.
As to `CCc1cccc(CC)c1-c1cccc2c1CC[C@H]2Nc1cnc2c(c1)OCC2CC(=O)O` (stereo partly drawn) [Example 124, 2-(6-{[(1R)-4-(2,6-Diethylphenyl)-2,3-dihydro-1H-inden-1-yl]amino}-2H,3H-furo[3,2-b]pyridin-3-yl)acetic acid], the pEC50 on human GPR40 receptor is 7.12. The solubility at 24 h in data set [1] is 6 µg/mL (≈ 13.6 µM). For the same molecule, the pIC50 (commonly −log10 of the IC50, conventionally taken in molar units) in data set [2] is 5.05; in data set [3], 4.31.
For `Cc1cc(-c2cc(=O)n(C)cn2)cc(C)c1-c1cccc2c1CC[C@H]2Nc1cnc2c(c1)OCC2CC(=O)O` (stereo partly drawn) [Example 133, 2-(6-{[(1R)-4-[2,6-Dimethyl-4-(1-methyl-6-oxo-1,6-dihydropyrimidin-4-yl)phenyl]-2,3-dihydro-1H-inden-1-yl]amino}-2H,3H-furo[3,2-b]pyridin-3-yl)acetic acid] the same measures were 7.48, 78 µg/mL (≈ 149 µM), 4.68 and less than 4.30.
As to `Cc1cc(OCCC(C)(C)O)cc(C)c1-c1cccc2c1CC[C@H]2Oc1ccc2c(c1)OC[C@H]2CC(=O)O` [7 (WO 2013/144098), reference compound], the pIC50 in data set [2] was 5.30; in data set [3], less than 5.00.
`N#Cc1cccc(C#N)c1-c1cccc2c1CC[C@H]2Nc1cnc2c(c1)OCC2CC(=O)O` (stereo partly drawn) [Example 130, 2-(6-{[(1R)-4-(2,6-Dicyanophenyl)-2,3-dihydro-1H-inden-1-yl]amino}-2H,3H-furo[3,2-b]pyridin-3-yl)acetic acid] had a negative-log EC50 (pEC50) at human GPR40 receptor of less than 5.00. Also, in data set [1], the concentration in solution (solubility at 24 h) came to 84 µg/mL (≈ 192 µM). For the same molecule, the negative logarithm of the IC50 (pIC50) in data set [2] and in data set [3] was less than 4.30 in each case.
On to `N#CC1(c2ccccc2-c2cccc3c2CC[C@H]3Nc2cnc3c(c2)OCC3CC(=O)O)CC1` (stereo partly drawn) [Example 131, 2-(6-{[(1R)-4-[2-(1-Cyanocyclopropyl)phenyl]-2,3-dihydro-1H-inden-1-yl]amino}-2H,3H-furo[3,2-b]pyridin-3-yl)acetic acid], for which the pEC50 at human GPR40 receptor was 5.19. The molecule also gave a solubility at 24 h in data set [1] of 67 µg/mL (≈ 148 µM). The pIC50 was 4.43 in data set [2] and less than 4.30 in data set [3].
For `Cc1cc(C(=O)N(C)C)cc(C)c1-c1cccc2c1CC[C@H]2Nc1cnc2c(c1)OCC2CC(=O)O` (stereo partly drawn) [Example 126, 2-(6-{[(1R)-4-[4-(Dimethylcarbamoyl)-2,6-dimethylphenyl]-2,3-dihydro-1H-inden-1-yl]amino}-2H,3H-furo[3,2-b]pyridin-3-yl)acetic acid] the same measures were 5.73, 79 µg/mL (≈ 163 µM), 4.43 and less than 4.30.
`Cc1cc(OCCC(C)(C)O)cc(C)c1-c1ccc(F)c2c1CC[C@H]2Nc1cnc2c(c1)OCC2CC(=O)O` (stereo partly drawn) [Example 1, 2-(6-{[(1R)-7-Fluoro-4-[4-(3-hydroxy-3-methylbutoxy)-2,6-dimethylphenyl]-2,3-dihydro-1H-inden-1-yl]amino}-2H,3H-furo[3,2-b]pyridin-3-yl)acetic acid] showed a pEC50 at human GPR40 receptor of 7.24. In addition, the results for the pIC50 in data set [2] and in data set [3] were 4.77 and less than 4.30, respectively.
Molecule `Cc1ccc(Cl)c(-c2cccc3c2CC[C@H]3Nc2cnc3c(c2)OCC3CC(=O)O)c1Cl` (stereo partly drawn) [Example 128, 2-(6-{[(1R)-4-(2,6-dichloro-3-methylphenyl)-2,3-dihydro-1H-inden-1-yl]amino}-2H,3H-furo[3,2-b]pyridin-3-yl)acetic acid] had a pEC50 at human GPR40 receptor of 6.90. Further, the solubility at 24 h in data set [1] is 1 µg/mL (≈ 2.13 µM). In addition, the pIC50 in data set [2] is 4.85; in data set [3], less than 4.30.
For `Cc1nc(-c2cc(C)c(-c3cccc4c3CC[C@H]4Nc3cnc4c(c3)OCC4CC(=O)O)c(C)c2)no1` (stereo partly drawn) [Example 132, 2-(6-{[(1R)-4-[2,6-Dimethyl-4-(5-methyl-1,2,4-oxadiazol-3-yl)phenyl]-2,3-dihydro-1H-inden-1-yl]amino}-2H,3H-furo[3,2-b]pyridin-3-yl)acetic acid] the same measures were 7.44, 3 µg/mL (≈ 6.04 µM), 4.64 and less than 4.30.
